Test: Human HepG2 cell viability assay in 384 well format
Assay type: toxicity, cell-based
Design: dose 125 nL, time 70.5 hour; concentration not given beside the values
Conditions: HepG2 cells, read-out: Inhibition

SMILES | cytotoxicity at 70.5 h [%]
Cc1ccc2c(ccn2CCC(=O)O)c1 | -4.94
CCC(NCc1cccc(Cl)c1)c1ccccc1OCC(=O)NC (centres undefined) | -1.52
CCOC(=O)C(C)NC(=O)N1CCN(c2nc3ccccc3n2C)CC1 (centres undefined) | -2.33
CCn1cc(Br)c(C(=O)NCc2cccnc2)n1 | -7.68
Cc1ccc(S(=O)(=O)NC(=O)CCC2CCCO2)cc1 (centres undefined) | 0.693
CC(C(=O)N1CCN(C(=O)c2ccc(F)cc2F)CC1)n1ccnc1 (centres undefined) | -4.77
CC(CNC(=O)c1ccc(=O)[nH]n1)N1CCc2ccccc21 (centres undefined) | 2.77
Cc1cnn(CCNCc2csc(-c3ccc(C)o3)n2)c1 | 19.9
C=C(C)COc1ccccc1NC(=O)N1CCOCC1CO (centres undefined) | 7.4
Fc1ccc(C(NCc2nnc(-c3ccco3)o2)C2CCC2)cc1 (centres undefined) | -12
OC1(c2ccc(F)cc2)CCN(Cc2ccccc2N2CCCC2)CC1 | 52.6
CCc1ncc(CN2CCOC(Cc3cccc(F)c3)C2)cn1 (centres undefined) | -9.07
COCCCN1CCC(c2nc3c([nH]2)CC(C)(C)CNC3=O)C1 (centres undefined) | -5.24
Cc1csc(CNc2ccc(-c3nc(C4CC4)no3)cn2)n1 | -5.44
COc1cccc(CN2CCCCCC2c2cccc(F)c2)c1O (centres undefined) | -1.29
COCCNC(=O)Cn1c(-c2cccc(F)c2)nc(C)c(CCO)c1=O | -7.96
Cc1ncoc1C(=O)N1CCOC(Cc2ccccc2)C1 (centres undefined) | -6.6
Cc1c(COc2ccccc2)cccc1NC(=O)N1CC[C@H](O)C1 | -1.47
Cc1nc(-c2ncc(C(=O)NCCNc3ncccc3C)c(O)n2)cs1 | -2.82
CN(Cc1ccc(Br)c2cccnc12)S(C)(=O)=O | 12.8
Cc1cc(-c2nn(C)c(Cl)c2CN2Cc3ccccc3C(O)C2)no1 (centres undefined) | -11.3
O=C(CC1CCCCC1)N1CCC(c2ncc3c(n2)CCNC3)CC1 | -7.09
c1ccc(CN2CCCC3(CCN(CC4CCCO4)CC3)C2)nc1 (centres undefined) | -9.93

SMILES | cytotoxicity at 70.5 h [%]
CCSCCNc1nc(-c2ccccn2)nc2c1c(C)nn2C | 2.98
CC(C)OCC(=O)N1CCCN(Cc2ccc(C#N)cc2)CC1 | 5.66
COc1ccccc1N1CC(NC(=O)c2cc(C(C)C)nn2C)CC1=O (centres undefined) | 12.6
Cc1nc(NC(=O)C(C)n2ncc(Br)c2C)sc1C (centres undefined) | 1.11
CCC(=O)N1CCCCC1c1nc(O)c2c(n1)CN(S(C)(=O)=O)CC2 (centres undefined) | 12.1
COCCOc1ncccc1C(=O)Nc1ccc(-n2cncn2)c(F)c1 | -6.17
CCN(Cc1noc(C2CCC2)n1)C(=O)CCc1cc2n(n1)CCNC2 | -7.31
Cc1noc(C)c1C(=O)N1CC[C@H]2C[C@@H](c3ccncn3)O[C@@H]2C1 | -5.05
COc1ccc(CNc2nc(N3CCOCC3)ns2)cc1 | -10.7
CN(C)C(=O)CCC1CCCN(Cc2ccc(-c3cccnc3)cc2)C1 (centres undefined) | -10.4
CN(CC(=O)N1CCCC(n2ccnc2)C1)c1cnccn1 (centres undefined) | -1.54
COCC1CC2(CCN(C(N)=O)CC2)CN1Cc1csc(C)n1 (centres undefined) | -3.74
Cc1cc(C)n(CC2CN(CC(=O)NC3CCCCC3)CCO2)n1 (centres undefined) | -9.27
Cc1cc(NC(=O)N2CCCC(O)C2)nn1-c1ccccc1Cl (centres undefined) | -5.66
Cc1ccc(C)c(S(=O)(=O)NC(=O)c2ccc(C)[nH]c2=O)c1 | -4.64
CC(C)CNC(=O)[C@H]1CCS(=O)(=O)[C@@H]2CN(Cc3ccc(F)cc3)C[C@H]12 | -10.2
CN1CCN2C[C@@H](NC(=O)c3nc4ccccc4[nH]3)C[C@H]2C1 | -4.68
Cc1ccc(OCCCNC(=O)C2(C)CC(=O)N3C=CC=CC3=N2)cc1 (centres undefined) | -3.61
COc1cc(C)c2c(c1C)C[C@H]([C@H](C)C(=O)O)CC2 | -3.45
O=C(c1ccc(Sc2ccccn2)cc1)N1CCCSCC1 | -10.8
O=C(Cn1cnc2sccc2c1=O)NCCCc1nnc2ccccn12 | -17.5
Cc1ccc(S(C)(=O)=O)cc1C(=O)N1CCCC(n2cncn2)C1 (centres undefined) | -3.44
O[C@@]1(c2ccccn2)CC[C@H]2CN(Cc3cccc(Cl)c3Cl)C[C@H]21 | -10.2

SMILES | cytotoxicity at 70.5 h [%]
CS(=O)(=O)N1CCc2ccc(C(=O)N3CCn4ncnc4C3)cc21 | -1.85
Cc1nccc(-c2ccccc2)c1C(=O)N1CCC2(CC(=O)NC2=O)C1 (centres undefined) | -0.158
CCC1CN(C(=O)Cc2coc(-c3ccccc3)n2)CCO1 (centres undefined) | -3.32
CCCS(=O)(=O)NCC(C)c1ccc(F)c(F)c1 (centres undefined) | 6.33
CCCN1CCN(C(=O)Cc2cccnc2)[C@H]2CS(=O)(=O)C[C@H]21 | 11.9
O=C(Cc1cccs1)NS(=O)(=O)c1cccc2cnccc12 | -116
O=C(c1cccnc1-n1cncn1)N1CCN(CC(F)(F)F)CC1 | -0.957
O=C(NCCc1nc(C2CC2)no1)[C@H]1CNC[C@H](C(=O)N2CCCC2)C1 | -1.74
CC1CCN(c2ncc3c(n2)CN(c2ccccc2)C3=O)CC1 | -9.08
O=C(CN1CCCC1Cn1cncn1)NCCOc1ccc(F)cc1 (centres undefined) | -0.118
Cc1cnn(C2CN(CC(O)c3ccc(F)cc3)C2)c1 (centres undefined) | -5.26
CCn1c(SCC(N)=O)nnc1-c1csc2c1CCCC2 | 2.39
CN(C)Cc1nnc2n1CCN(c1cnccn1)CC2 | 0.405
CC(C)Nc1ncnc2c1CCN(C(=O)CC1CCCC1)CC2 | 9.38
COc1cccc(F)c1C(C)NC(=O)NCc1ccnc(C)n1 (centres undefined) | 26.5
COc1cccc(N2CCC(CNCc3cccc(C#N)c3)C2)c1 (centres undefined) | 9.04
CCS(=O)(=O)NCCCNCc1c(C)nn(C)c1N(C)C | 21.5
COc1ncccc1CNC1CCc2c(ccc(=O)n2CC2CC2)C1 (centres undefined) | -8.76
Nc1nnc(CCNc2ncnc3c2CCN(C(=O)C2CC2)C3)s1 | -4.19
Cc1cccc(CNCc2ccc(NC(=O)NC(C)C)cc2)c1 | 2.57
NC(=O)CNC1(c2ccc(Br)cc2)CCOCC1 | 22.4
Cn1ccnc1CN1CCCN(C(=O)COC2CCCCC2)CC1 | 22.3
CC(=O)N1CCC2(CCN(Cc3cccc(F)c3)CC2)CC1 | -2.12

SMILES | cytotoxicity at 70.5 h [%]
Cn1c(CN2CCOCC2)nnc1C1CCCN(CC(N)=O)C1 (centres undefined) | 3.41
Cc1cccc(OC(C)C(=O)NCC2(N(C)C)CCCC2)c1 (centres undefined) | -8.19
Cc1noc(C)c1CN1C[C@@H]2CN(C(=O)c3cscn3)C[C@@H]2C1 | -2.29
Cc1ccnc2c1NC(=O)CN2C(=O)CCc1ccccc1 | -13.4
c1cncc(OC[C@@]23CCC[C@@H]2CN(C2CCOCC2)C3)c1 | -1.53
O=C(NCCN1CCOC1=O)c1cnc(-c2cccnc2)nc1 | -3.86
O=C(c1nccc2ccccc12)N1CCCCC1Cn1cccn1 (centres undefined) | -5.86
CCc1nc(CN(C)CC(=O)NC(C)C)cs1 | -13.3
COc1ccc(CNC(=O)N2CCN(C)[C@@H]3CS(=O)(=O)C[C@@H]32)cc1 | -1.34
CCCn1cnc2c(cnn2-c2cccc(C)c2C)c1=O | 37.7
Cn1cc(CN2CCOC(Cc3cccc(F)c3)C2)cn1 (centres undefined) | -6
CCC(O)CN(C)Cc1nnc2ccccn12 (centres undefined) | 9.61
Cc1ccc2occ(CN3CCN(c4ncccn4)CC3)c(=O)c2c1 | 29.4
COc1cc(N2CC[C@@H](O)[C@@H]2Cc2ccncc2)ncn1 | -10
CCc1noc(C(C)N2CCN(C)CC2)n1 (centres undefined) | -7.05
COc1ccc(CC(=O)N2CCCC(n3nc(C)cc3C)C2)cc1 (centres undefined) | -3.95
O=C(NCCCN1CCCC1)c1n[nH]c(=O)c2ccccc12 | -9.07
c1ncn(CC2CCCN(Cc3nc(-c4ccoc4)no3)C2)n1 (centres undefined) | -10.5
CCc1nc(C2CCCN(C(=O)C3=NN(C(C)C)C(=O)CC3)C2)no1 (centres undefined) | -13.3
COc1ccccc1NC(=O)N(CCO)Cc1ccsc1 | 5.1
c1ncn(CC2CN(Cc3ccc4c(c3)OCCO4)CCO2)n1 (centres undefined) | -0.441
C[C@@H]1CN(S(=O)(=O)N2CCCC2)CC[C@@]1(O)C1CCOCC1 | -14
COCC(C)NC(=O)N(C)Cc1cc(C)on1 (centres undefined) | -5.5

SMILES | cytotoxicity at 70.5 h [%]
CN1CC2(CCCN(CCOCc3ccccc3)C2)OC1=O (centres undefined) | -3.02
Cc1cc(C)cc(NC(=O)CC2CN(Cc3ccccc3)CCO2)c1 (centres undefined) | -4.17
Cc1nc(CN2C[C@@H]3CN(c4ncc(F)cn4)C[C@@H]3C2=O)cs1 | -10.5
COc1ccc(NC(C)=O)c(N2CCN(C(C)=O)CC2)n1 | -0.156
CSc1ccccc1C(=O)N1CCN(C)C2(CCC(=O)N(C)CC2)C1 (centres undefined) | -14.6
Cc1ccc(OCCN(C)S(=O)(=O)N2CCOCC2)cc1 | -0.648
CCOc1ccnc(N2CCN(C(=O)c3cn[nH]c3C)CC2)n1 | 13.7
Cc1cc(N2CCCC(c3[nH]ncc3Cc3ccccc3)C2)nc(N)n1 (centres undefined) | 11.1
CC(C)c1nc(CN2CCCC2Cn2cccn2)no1 (centres undefined) | -2.93
CCC(C)(CNC(=O)Nc1nccs1)N1CCOCC1 (centres undefined) | -8.6
CCC(CO)NC(=O)Nc1ccc(OCC(F)(F)F)c(C)c1 (centres undefined) | -1.78
CCn1cc(C(=O)N2CCCC3(CCC(=O)N(CCC(C)C)C3)C2)cn1 (centres undefined) | -5.07
Cc1nc(CN2CCCC3(CCN(c4cccnc4)C3=O)C2)cs1 (centres undefined) | 14.2
CS(=O)(=O)N1CCC(CNC(=O)C2CCCC2)CC1 | -16
CCc1ccc(S(=O)(=O)N2CCCC(c3ncc[nH]3)C2)s1 (centres undefined) | -4.54
Cc1nn(C)c(C)c1C1CCCN1Cc1nc(N)c2ccccc2n1 (centres undefined) | -2.07
O=C(c1ccccn1)N1CCC2(CCCN(c3nncs3)C2)C1 (centres undefined) | -9.42
COc1ccc(NC(=O)c2nc3ccccc3n(C)c2=O)cc1OC | 29.1
Cc1cc(CN(C)C2CCCN(c3cccnn3)C2)no1 (centres undefined) | -9.99
Cc1nc(N(C)C)nc(C)c1NC(=O)c1ccccc1F | -7.08
CNC(=O)C1Cn2ccnc2C2(CCN(Cc3c(C)noc3C)CC2)O1 (centres undefined) | 21.5
Cc1ncc2c(n1)CN(Cc1cccc3c1OCCO3)CC2 | -1.1
